The values that follow come from patent US20120208781A1, “AMINOGLYCOSIDE DOSING REGIMENS” (Achaogen, Inc., priority 2009, published 2012).

The subject of data set [1] is rat kidney. As to the kind of experiment: Rat nephrotoxicity model: kidney histopathology (H&E). In kind it is in vivo, Sprague-Dawley rats. The conditions noted are these: rats, 14 d once-daily. The method, then:
This rat nephrotoxicity study design used 14 days of once-daily dosing of aminoglycosides in adult Sprague-Dawley rats. Rats were allowed full access to food and water, and aminoglycosides were dosed subcutaneously at 1 mL/kg dosing volume, formulated in water. Nephrotoxicity was assessed by monitoring changes in serum markers of glomerular filtration rate (GFR), namely blood urea nitrogen (BUN) and serum creatinine. Microscopic examination of kidney slices after fixation and hematoxylin and eosin (H&E) staining was also utilized, scoring for tubular dilation, cellular casts, interstitial inflammation, and regenerative changes to the tubules.

The subject of data set [2] is rat kidney. As to the kind of experiment: Rat nephrotoxicity model: serum markers of GFR (BUN, serum creatinine). In kind it is in vivo, Sprague-Dawley rats. The conditions noted are these: dose-response for BUN elevation.
The next data set concerns E. coli. The experiment in a line: MIC, further Brooklyn patient isolates: E. coli. In kind it is cell-based. Details: unit not given beside the values. The conditions noted are these: E. coli (n = 3071). The method, then:
Minimum inhibitory concentrations (MIC) were determined by reference Clinical and Laboratory Standards Institute (CLSI) broth microdilution methods per M7-A7 [2006]. Briefly, serial two-fold dilutions of Compound 1 and comparator AGs (together, “the test compounds”) were prepared at 2× concentration in appropriate diluent. The dilutions were mixed in 96-well assay plates with bacterial inoculum. Bacteria were suspended in sterile saline and added to each assay plate to obtain a final concentration of 5.5×10^5 CFU/mL. The plates were incubated at 35° C. for 20 hours in ambient air. […] After incubation, assay plates were read using a microtiter plate reader at 600 nm.
Further studies analyzed a greater number of unique patient isolates obtained from Brooklyn, N.Y. hospitals (including those species described above). These species included Acinetobacter, E. coli, Enterobacter, Klebsiella, and Pseudomonas.

Consider `CN[C@@H]1[C@@H](O[C@H]2O[C@H](CO)[C@@H](N)[C@H](O)[C@H]2O)OC2C[C@@H](N)[C@@H](O[C@H]3[C@H](O)[C@@H](O)[C@H](N)C[C@@H]3N)OC2[C@@H]1O` (stereo partly drawn) [Apramycin, apramycin], for which, in the data set with rat kidney [1] (3 mg/kg), the “Histopathology score (0 to 5 Scale): Casts” value (from here on “Histopathology score … Casts”) is reported as 0 +/− 0, the “Histopathology score (0 to 5 Scale): Dilation” value (from here on “Histopathology score … Dilation”) is given as 0 +/− 0, the “Histopathology score (0 to 5 Scale): Inflammation” value is recorded as 0.4 +/− 0.5 and the “Histopathology score (0 to 5 Scale): Regeneration” value is reported as 0 +/− 0. In the data set on rat kidney [1] (10 mg/kg), the “Histopathology score … Casts” value was 0 +/− 0, the “Histopathology score … Dilation” value is listed as 0 +/− 0, the “Histopathology score (0 to 5 Scale): Inflammation” value was 0.4 +/− 0.5 and the “Histopathology score (0 to 5 Scale): Regeneration” value is 0.6 +/− 1.3. In addition, in the data set on rat kidney [1] (30 mg/kg), the “Histopathology score … Casts” value is on record as 0 +/− 0, the “Histopathology score … Dilation” value is 0 +/− 0, the “Histopathology score (0 to 5 Scale): Inflammation” value is 0.6 +/− 0.5 and the “Histopathology score (0 to 5 Scale): Regeneration” value is listed as 0.6 +/− 0.5. Moreover, in the data set with rat kidney [1] (100 mg/kg), the “Histopathology score … Casts” value is 1.4 +/− 0.5, the “Histopathology score … Dilation” value is reported as 0.6 +/− 0.5, the “Histopathology score (0 to 5 Scale): Inflammation” value is reported as 2.4 +/− 0.5 and the “Histopathology score (0 to 5 Scale): Regeneration” value is reported as 2.4 +/− 0.5. Moreover, in the data set with rat kidney [2], the “apparent relative nephrotoxicity (ranking)” value is “Neomycin≈Gentamicin>Tobramycin>Apramycin≈Paromomycin>Amikacin”.
Turning to `CC(C)(O/N=C(\C(=O)N[C@@H]1C(=O)N2C(C(=O)[O-])=C(C[n+]3ccccc3)CS[C@H]12)c1csc(N)n1)C(=O)O` [CAZ, ceftazidime], the MIC50 entry against E. coli is “≦0.25”.
